In patent publication US20240417405A1, “Substituted Spiro Derivatives” (Janssen Pharmaceutica NV, priority 2021, published 2024):
Read-outs that look alike come from different tables or passages of the source.

Experiments:
KO-52 cells = assay: Proliferation assay, spheroid-like growth, KO-52 (MLL wildtype control cell line); assay type: cell-based, human; settings: KO-52 control cells, 8 days, confluence as measure of spheroid size, read-out: spheroid assay_OneTime KO-52 IC50
Description: The anti-proliferative effect of menin/MLL protein/protein interaction inhibitor test compounds was assessed in human leukemia cell lines. The cell line MOLM14 harbors a MLL translocation and expresses the MLL fusion proteins MLL-AF9, respectively, as well as the wildtype protein from the second allele. […] KO-52 was used as a control cell line containing two MLL (KMT2A) wildtype alleles in order to exclude compounds that display general cytotoxic effects.
MOLM14 cells were cultured in RPMI-1640 (Sigma Aldrich) supplemented with 10% heat-inactivated fetal bovine serum (HyClone), 2 mM L-glutamine (Sigma Aldrich) and 50 μg/ml gentamycin (Gibco). KO-52 cell lines were propagated in alpha-MEM (Sigma Aldrich) supplemented with 20% heat-inactivated fetal bovine serum (HyClone), 2 mM L-glutamine (Sigma Aldrich) and 50 μg/ml gentamycin (Gibco).
In order to assess the anti-proliferative effects, 200 MOLM14 cells, or 300 KO-52 cells were seeded in 200 μl media per well in 96-well round bottom, ultra-low attachment plates (Costar, catalogue number 7007). Cell seeding numbers were chosen based on growth curves to ensure linear growth throughout the experiment. Test compounds were added at different concentrations and the DMSO content was normalized to 0.3%. Cells were incubated for 8 days at 37° C. and 5% CO2. Spheroid like growth was measured in real-time by live-cell imaging (IncuCyteZOOM, Essenbio, 4× objective) acquiring images at day 8. Confluence (%) as a measure of spheroid size was determined using an integrated analysis tool.
In order to determine the effect of the test compounds over time, the confluence in each well as a measure of spheroid size, was calculated. Confluence of the highest dose of a reference compound was used as baseline for the LC (Low control) and the confluence of DMSO treated cells was used as 0% cytotoxicity (High Control, HC).
Absolute IC50 values were calculated as percent change in confluence as follows:
LC=Low Control: cells treated with e.g. 1 μM of the cytotoxic agent staurosporin, or e.g. cells treated with a high concentration of an alternative reference compound
GraphPad Prism (version 7.00) was used to calculate the IC50. Dose-response equation was used for the plot of % Effect vs Log 10 compound concentration with a variable slope and fixing the maximum to 100% and the minimum to 0%.

[1] = target: T1, menin/MLL (terbium chelate-labeled menin, FITC-MBM1 peptide) (Homo sapiens, UniProt O00255, T541A); assay: Menin/MLL homogenous time-resolved fluorescence (HTRF) assay; assay type: binding; settings: 30 min incubation
T1 construct: Menin (a.a 1-610-6xhis tag)
T1 sequence (O00255 with tags, fused parts or gaps T541A): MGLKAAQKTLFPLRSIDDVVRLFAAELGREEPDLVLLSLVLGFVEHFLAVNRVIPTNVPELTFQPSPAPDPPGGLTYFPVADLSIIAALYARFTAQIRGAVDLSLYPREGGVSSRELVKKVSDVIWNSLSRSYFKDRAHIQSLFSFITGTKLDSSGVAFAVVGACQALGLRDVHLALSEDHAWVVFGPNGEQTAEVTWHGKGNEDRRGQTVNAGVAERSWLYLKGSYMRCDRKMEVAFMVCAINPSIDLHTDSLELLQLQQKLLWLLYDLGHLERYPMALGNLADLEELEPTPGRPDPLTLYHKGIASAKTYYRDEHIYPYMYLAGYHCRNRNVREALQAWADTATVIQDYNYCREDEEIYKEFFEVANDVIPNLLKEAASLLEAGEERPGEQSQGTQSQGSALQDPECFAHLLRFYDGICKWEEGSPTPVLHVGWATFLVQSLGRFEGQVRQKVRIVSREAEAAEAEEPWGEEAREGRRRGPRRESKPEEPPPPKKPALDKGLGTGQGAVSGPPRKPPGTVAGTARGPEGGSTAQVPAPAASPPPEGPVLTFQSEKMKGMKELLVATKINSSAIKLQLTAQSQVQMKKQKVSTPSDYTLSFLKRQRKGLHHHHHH
In short: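 Compounds were preincubated 30 min at ambient temperature with 200 pM terbium-labeled menin (aa 1-610, His-tagged) in Tris pH 7.5 buffer with DTT and Pluronic, then 75 nM FITC-MBM1 peptide added for 15 min. HTRF ratio 520/490 nm gave % inhibition; IC50 from four-parameter fit, floor 0.1 nM.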

MOLM14 cells = assay: Proliferation assay, spheroid-like growth, MOLM14 (MLL-AF9 rearranged); assay type: cell-based, human; settings: 8 days, confluence as measure of spheroid size, read-out: spheroid assay_OneTime MOLM14 IC50
In short: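 IC50 derived from a variable-slope dose-response fit of percent confluence change, with DMSO-treated cells as high control and high-dose reference compound as low control. Spheroid-like growth of MOLM14 (200 cells/well) or KO-52 (300 cells/well) in ultra-low attachment plates, 8 days, 37° C, 5% CO2, DMSO normalised to 0.3%, imaged at day 8.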

| Compound | IC50 (KO-52 cells; Homo sapiens, 192 h) | IC50 [1] | IC50 (MOLM14 cells; Homo sapiens, MOLM-14, 192 h) | IC50 (MOLM14 cells) | IC50 (KO-52 cells) |
| --- | --- | --- | --- | --- | --- |
| CC(C)[C@H]([C@H]1C[C@@H](N2CC(O)C3(CC3)C2)C1)N1CC2(CCN(c3ncnnc3Oc3ccc(F)cc3-c3cncnc3C3CC3)C2)C1 (mixture of isomers) [Compound 42] | 2120 nM | 0.1 nM | 4 nM | – | – |
| CC(C)[C@H]([C@H]1C[C@H](N2CC(O)C3(CC3)C2)C1)N1CC2(CCN(c3ncnnc3Oc3ccc(F)cc3-c3cncnc3C3CC3)C2)C1 (mixture of isomers) [Compound 43] | 9960 nM | 0.1 nM | 42 nM | – | – |
| CC(C)[C@H]([C@H]1C[C@H](N2CC(O)C3(CCC3)C2)C1)N1CC2(CCN(c3ncnnc3Oc3ccc(F)cc3-c3cncnc3C3CC3)C2)C1 (mixture of isomers) [Compound 213] | 3910 nM | 0.1 nM | 41 nM | – | – |
| COC1(C)CCN([C@H]2C[C@H]([C@H](C(C)C)N3CC4(CCN(c5ncnnc5Oc5ccc(F)cc5-c5nnccc5C5CC5)C4)C3)C2)C1 (mixture of isomers) [Compound 276] | > 15000 nM | 0.8 nM | 82 nM | – | – |
| CC(C)C([C@H]1C[C@@H](N)C1)N1CC2(CCN(c3ncnnc3Oc3ccc(F)cc3-c3cncnc3C3CC3)C2)C1 (single isomer, unassigned) [Compound 1a] | > 15000 nM | 0.1 nM | – | 20 nM | – |
| CC(C)C([C@H]1C[C@@H](N)C1)N1CC2(CCN(c3ncnnc3Oc3ccc(F)cc3-c3cncnc3C3CC3)C2)C1 (single isomer, unassigned) [Compound 1b] | – | 0.4 nM | – | 200 nM | > 15000 nM |
| CC(=O)N[C@H]1C[C@@H]([C@@H](C(C)C)N2CC3(CCN(c4ncnnc4Oc4ccc(F)cc4-c4cncnc4C4CC4)C3)C2)C1 (single isomer, unassigned) [Compound 2a] | 7000 nM | 0.2 nM | 22 nM | – | – |
| CC(=O)NC1CC(C(C(C)C)N2CC3(CCN(c4ncnnc4Oc4ccc(F)cc4-c4cncnc4C4CC4)C3)C2)C1 (single isomer, unassigned) [Compound 2b] | – | 16.6 nM | – | 1310 nM | > 15000 nM |
| CC(C)[C@H](C1CCN(CC2(O)CC2)CC1)N1CC2(CCN(c3ncnnc3Oc3ccc(F)cc3-c3cncnc3C3CC3)C2)C1 (single isomer, unassigned) [Compound 4] | 7730 nM | 0.3 nM | 66 nM | – | – |
| CC(C)[C@H](C1CCN(CC2COC2)CC1)N1CC2(CCN(c3ncnnc3Oc3ccc(F)cc3-c3cncnc3C3CC3)C2)C1 (single isomer, unassigned) [Compound 5] | 9310 nM | 0.2 nM | 120 nM | – | – |
| CC(C)C([C@H]1C[C@@H](N(C)C)C1)N1CC2(CCN(c3ncnnc3Oc3ccc(F)cc3-c3cncnc3C3CC3)C2)C1 (single isomer, unassigned) [Compound 7] | 5040 nM | 0.1 nM | 4 nM | – | – |
| CC(C)C([C@H]1C[C@H](N(C)C)C1)N1CC2(CCN(c3ncnnc3Oc3ccc(F)cc3-c3cncnc3C3CC3)C2)C1 (single isomer, unassigned) [Compound 8] | 10200 nM | 0.3 nM | 52 nM | – | – |
| CC(C)[C@H]([C@H]1C[C@@H](N2CCC(S(C)(=O)=O)CC2)C1)N1CC2(CCN(c3ncnnc3Oc3ccc(F)cc3-c3cncnc3C3CC3)C2)C1 (single isomer, unassigned) [Compound 9] | 7160 nM | 0.1 nM | 21 nM | – | – |
| CC(C)[C@H]([C@H]1C[C@@H](N2CCC(O)C(F)C2)C1)N1CC2(CCN(c3ncnnc3Oc3ccc(F)cc3-c3cncnc3C3CC3)C2)C1 (single isomer, unassigned) [Compound 10] | 5090 nM | 0.4 nM | 17 nM | – | – |
| CC(C)[C@H]([C@H]1C[C@@H](N2C[C@H]3COC[C@H]3C2)C1)N1CC2(CCN(c3ncnnc3Oc3ccc(F)cc3-c3cncnc3C3CC3)C2)C1 (single isomer, unassigned) [Compound 14] | 2110 nM | 0.1 nM | 2 nM | – | – |
| COC1CCN([C@H]2C[C@@H](C(C(C)C)N3CC4(CCN(c5ncnnc5Oc5ccc(F)cc5-c5cncnc5C5CC5)C4)C3)C2)CC1 (single isomer, unassigned) [Compound 16] | 1880 nM | 0.1 nM | 4 nM | – | – |
| CC(C)[C@H]([C@H]1C[C@@H](N2CCCC2)C1)N1CC2(CCN(c3ncnnc3Oc3ccc(F)cc3-c3cncnc3C3CC3)C2)C1 (single isomer, unassigned) [Compound 18] | 810 nM | 0.1 nM | 2 nM | – | – |
| CC(C)[C@H]([C@H]1C[C@H](N2CCC(C)(C(=O)N(C)C)CC2)C1)N1CC2(CCN(c3ncnnc3Oc3ccc(F)cc3-c3cncnc3C3CC3)C2)C1 (single isomer, unassigned) [Compound 63] | > 15000 nM | – | 57 nM | – | – |
| CC(C)[C@H]([C@H]1C[C@@H](NC(=O)C2CC2)C1)N1CC2(CCN(c3ncnnc3Oc3ccc(F)cc3-c3cccc(=O)n3C3CC3)C2)C1 (single isomer, unassigned) [Compound 190] | 14800 nM | – | 76 nM | – | – |
| CC(C)[C@@H]([C@H]1C[C@@H](NC(=O)C2CC2)C1)N1CC2(CCN(c3ncnnc3Oc3ccc(F)cc3-c3cccc(=O)n3C3CC3)C2)C1 (single isomer, unassigned) [Compound 191] | > 15000 nM | – | > 940 nM | – | – |
| CC(C)[C@H]([C@H]1C[C@@H](N2CC[C@](C)(O)C2)C1)N1CC2(CCN(c3ncnnc3Oc3ccc(F)cc3-c3cncnc3C3CC3)C2)C1 [Compound 12] | > 15000 nM | – | 2 nM | – | – |
| CC(C)C([C@H]1C[C@H](N2CCC(C)(O)CC2)C1)N1CC2(CCN(c3ncnnc3Oc3ccc(F)cc3-c3cncnc3C3CC3)C2)C1 (stereo partly drawn) [Compound 130] | > 15000 nM | – | 120 nM | – | – |
| CC(C)C([C@H]1C[C@H](NCC(C)(C)O)C1)N1CC2(CCN(c3ncnnc3Oc3ccc(F)cc3-c3cncnc3C3CC3)C2)C1 (stereo partly drawn) [Compound 134] | 13200 nM | – | 130 nM | – | – |
| CC(C)C([C@H]1C[C@H](N2CC3(COC3)C2)C1)N1CC2(CCN(c3ncnnc3Oc3ccc(F)cc3-c3ncc(C#N)cc3C3CC3)C2)C1 (stereo partly drawn) [Compound 141] | 12400 nM | – | 260 nM | – | – |
| CC(C)C([C@H]1C[C@@H](N2C[C@H]3COC[C@H]3C2)C1)N1CC2(CCN(c3ncnnc3Oc3ccc(F)cc3-c3cnc(C#N)nc3C3CC3)C2)C1 (stereo partly drawn) [Compound 166] | 1530 nM | – | 3 nM | – | – |
| Fc1ccc(Oc2nncnc2N2CCC3(C2)CN(C(C2CCN(CC4COC4)CC2)C24CC(C2)C4)C3)c(-c2nnccc2C2CC2)c1 (stereo not drawn) [Compound 340] | 11400 nM | – | 170 nM | – | – |
